Experiment [1] has as its system hMSCs. The experiment can be described thus: Immunofluorescence of osteoblast marker proteins. It is filed as cell-based, human. The following applies: hMSCs on phage films, 26 days, basal media. The source says: OPN was detected with the primary antibody for OPN (RbpAB to osteopontin ab8448 from Abcam). The secondary antibody used was Goat Anti-Rabbit IgG H&L (Alexa Fluor 555) (ab150078) from Abcam (red). OCN was detected with the primary antibody for OCN [OC4-30] (ab13418) from Abcam). The secondary antibody used was Goat Anti-Mouse IgG H&L (Dylight 650) preadsorbed from abcam ab96882 (red). COL was detected using a primary antibody for COL (RbpAb to collagen 1 ab34710). The secondary antibody used was Goat Anti-Rabbit IgG H&L (Alexa Fluor 555) (ab150078) from abcam (red). Cell nuclei were stained by DAPI (blue) for all samples, and actin was stained by phalloidin (green).
This procedure can be scaled for any size well plates or petri dish, but the volumes included are for 96-well tissue culture plates. […]
After culturing hMSCs on phage films for 26 days, the cells were fixed with 4% paraformaldehyde (10 min) and permeabilized with 0.2% Triton X-100 (2 min) at room temperature. […] The osteogenic protein markers osteopontin (OPN), osteocalcin (OCN), and collagen type 1A (COL) were detected through immunofluorescence. OPN was detected with the primary antibody for OPN (RbpAB to osteopontin ab8448 from Abcam). […] OCN was detected with the primary antibody for OCN [OC4-30] […] COL was detected using a primary antibody for COL (RbpAb to collagen 1 ab34710). […]

The subject of experiment [2] is rat radial bone defect model. Briefly: Rat radial bone defect model, Micro-CT. It is filed as in vivo. The following applies: phage-coated titanium scaffold seeded with hMSCs; 4 weeks. The protocol:
The titanium alloy scaffolds were rinsed 3 times in distilled water followed by autoclaving. The scaffolds were then coated in poly-L-lysine by soaking in 2.5 ml of poly-L-lysine per 5 scaffolds in a 24-well cell culture plate for 30 minutes. The poly-L-lysine was then discarded, and the scaffolds were allowed to dry in a sterile hood overnight. In a sterile cell culture hood, 2 scaffolds were loaded into the sterile freeze casting holder (sterilized by autoclaving). 2 ml of sterile, filtered phage solution (3×10^13 phages/ml) was pipetted into the casting holder and directly into the pores of the titanium scaffolds. The solution was allowed to incubate at room temperature for 30 minutes so that phages could stick better to the scaffold. The scaffolds and phage solution were then freeze casted in the double-sided freeze casting machine with a temperature drop of 3° C./min on the lower contact point and a constant 0° C. on the upper contact point. The final temperature for the lower contact point was −135° C. The frozen scaffold and solution were then freeze dried overnight. For cell seeding, the scaffold was then soaked overnight in cell medium followed by seeding 3.6×10^4 hMSCs onto the scaffold the next day in new medium. After 1 day of culturing, the scaffolds were implanted into the rat radial bone defect model. […]

As for “VHVPLHRGAVSA (Completely synthesized in the lab - Ph.D.-12 Phage Display Peptide Library Kit (New England Biolabs))”, in experiment [1], the “Osteocalcin protein expression (immunofluorescence)” value is given as “slightly greater osteocalcin production”; the “Osteopontin protein expression (immunofluorescence)” value was “qualitatively higher level of osteopontin protein expression than the other groups and a higher expression than the positive control”. Further, the “Healing of bone defect (Micro-CT)” value in experiment [2] is recorded as “Increased healing was best observed”.

These data come from patent US20210369812A1, “OSTEOINDUCTIVE PEPTIDES, COMPOSITIONS, IMPLANTS, AND METHODS OF USE” (The Board of Regents of the University of Oklahoma, priority 2018, published 2021).
